# Experimental data reported in patent EP4810038A1, “METHOD FOR TREATING ALK-POSITIVE OR ROS1-POSITIVE NON-SMALL CELL LUNG CANCER” (Shenzhen TargetRx Co., Ltd., priority 2023, dated 2025).
# Test system: ALK-positive or ROS1-positive advanced non-small cell lung cancer
# Test: Phase I clinical trial, dose escalation and expansion phases: efficacy (RECIST 1.1)
# Format: in vivo, human
# Conditions: systemic
# Protocol: The anti-tumor efficacy is evaluated according to RECIST version 1.1. For patients initially evaluated as having a complete response (CR) or partial response (PR), efficacy should be confirmed at least 4 weeks later. In the patients with asymptomatic central nervous system (CNS) metastases, in addition to evaluating 5 extracranial target lesions, up to 5 intracranial target lesions will also be evaluated. The specific indicators are as follows:
# "CR" is defined as the disappearance of all target lesions, and the diameters of the short axis of all the pathological lymph nodes (whether target or non-target lymph nodes) must be reduced to 10 mm or less.
# "PR" is defined as a reduction of at least 30% in the total diameter of the target lesions, with the total diameter of the baseline as a reference value.
# "PD" is defined as an increase of at least 20% in the total diameter of the target lesions, using the minimum total diameter in the study as a reference value (this value may include the total diameter of the baseline). In addition, the absolute value of the total diameter must increase by at least 5 mm (the appearance of one or more new lesions is also considered as progressive disease).
# "SD" is defined as a state in which the reduction in target lesions is insufficient to achieve partial response and the increase is insufficient to achieve progressive disease.
# "ORR" includes CR and PR, and is defined as the proportion of patients who achieve complete response or partial response.
# "IC-ORR" includes CR or PR for confirmed intracranial lesions, and is defined as the proportion of the patients with complete response or partial response of intracranial lesions among the patients with intracranial lesions.
# "DCR" is defined as the proportion of the patients who achieve response (PR+CR) and stable disease (SD) after a treatment.
# "IC-DCR" is defined as the proportion of the patients who achieve intracranial response (PR+CR), intracranial stable disease (SD), and […] after a treatment among the patients with intracranial lesions.
# "DOR" is defined as the time from the first assessment of CR or PR to progressive disease or death, and is only applicable to the patients who achieve response.
# "IC-DOR" is defined as the time from the first assessment of intracranial CR or intracranial PR to progressive disease or death, and is only applicable to the patients whose intracranial lesions achieve response.
# "TTR" is defined as the time from patient enrollment (first dose of investigational drug) to tumor response (CR/PR), based on the patients with objective response.
# "IC-TTR" is defined as the time from patient enrollment (first dose of investigational drug) to intracranial tumor response (IC-CR/PR), based on the patients with intracranial objective response.
# Approximately eight dose groups in total were set in the dose escalation phase, which were 5 (the starting dose), 10, 20, 40, 60, 80, 100, and 125 mg, respectively. Subjects in all the dose groups received a single dose on day 1 (D1), and the blood samples were collected for pharmacokinetic (PK) assay and tolerability observation. If no grade 2 or a higher-level adverse event related to the investigational drug occurred during the single-dose period (5 to 7 days) (if such events occurred, dose adjustments would be made based on the toxicity according to the protocol), the subject entered the multiple-dose period (i.e., treatment period) 5 to 7 days later (7 days after the first administration in the first dose group (i.e., starting the multiple-dose treatment on day 8), and the intervals for the subsequent dose groups were determined based on the obtained tolerability and PK data). […]
compound,measurement,setting,value
"[2H]C([2H])([2H])n1nc2c(c1C#N)-c1cnc(N)c(c1)O[C@H](C)c1cc(F)ccc1C(=O)N(C)C2 [compound A, (10R)-7-amino-12-fluoro-2-(methyl-d3)-10,16-dimethyl-15-oxo-10,15,16,17-tetrahydro-2H-8,4-(metheno)pyrazolo[4,3-h][2,5,11]benzoxadiazacyclotetradecine-3-carbonitrile]",DCR (95% CI),5mg (N=1),"1 (100) (2.5, 100.0) n (%)"
same,BOR CR,10mg (N=1),0 n (%)
same,BOR NE,10mg (N=1),0 n (%)
same,BOR PD,10mg (N=1),0 n (%)
same,BOR PR,10mg (N=1),0 n (%)
same,BOR SD,10mg (N=1),1 (100) n (%)
same,Confirmed ORR (95% CI),10mg (N=1),"0 (0.0, 97.5) n (%)"
same,DCR (95% CI),10mg (N=1),"1 (100) (2.5, 100.0) n (%)"
same,BOR CR,20mg (N=1),0 n (%)
same,BOR NE,20mg (N=1),0 n (%)
same,BOR PD,20mg (N=1),0 n (%)
same,BOR PR,20mg (N=1),1 (100) n (%)
same,BOR SD,20mg (N=1),0 n (%)
same,Confirmed ORR (95% CI),20mg (N=1),"1 (100) (2.5, 100.0) n (%)"
same,DCR (95% CI),20mg (N=1),"1 (100) (2.5, 100.0) n (%)"
same,Median DOR (95% CI),20mg (N=1),"6.93 (-, -) months"
same,Median TTR (range),20mg (N=1),"1.35 (1.35, 1.35) months"
same,BOR CR,40mg (N=10),0 n (%)
same,BOR NE,40mg (N=10),2 (20.0) n (%)
same,BOR PD,40mg (N=10),2 (20.0) n (%)
same,BOR PR,40mg (N=10),1 (10.0) n (%)
same,BOR SD,40mg (N=10),5 (50.0) n (%)
same,Confirmed ORR (95% CI),40mg (N=10),"1 (10.0) (0.3, 44.5) n (%)"
same,DCR (95% CI),40mg (N=10),"6 (60.0) (26.2, 87.8) n (%)"
same,Median TTR (range),40mg (N=10),"2.73 (2.73, 2.73) months"
same,BOR CR,60mg (N=12),0 n (%)
same,BOR NE,60mg (N=12),0 n (%)
same,BOR PD,60mg (N=12),1 (8.3) n (%)
same,BOR PR,60mg (N=12),6 (50.0) n (%)
same,BOR SD,60mg (N=12),5 (41.7) n (%)
same,Confirmed ORR (95% CI),60mg (N=12),"6 (50.0) (21.1, 78.9) n (%)"
same,DCR (95% CI),60mg (N=12),"11 (91.7) (61.5, 99.8) n (%)"
same,Median DOR (95% CI),60mg (N=12),"12.45 (2.79, -) months"
same,Median TTR (range),60mg (N=12),"1.35 (1.35, 6.90) months"
same,BOR CR,80mg (N=11),0 n (%)
same,BOR NE,80mg (N=11),1 (9.1) n (%)
same,BOR PD,80mg (N=11),1 (9.1) n (%)
same,BOR PR,80mg (N=11),4 (36.4) n (%)
same,BOR SD,80mg (N=11),5 (45.5) n (%)
same,Confirmed ORR (95% CI),80mg (N=11),"4 (36.4) (10.9, 69.2) n (%)"
same,DCR (95% CI),80mg (N=11),"9 (81.8) (48.2, 97.7) n (%)"
same,Median DOR (95% CI),80mg (N=11),"12.48 (7.98, -) months"
same,Median TTR (range),80mg (N=11),"1.45 (1.35, 13.96) months"
same,BOR CR,100mg (N=3),0 n (%)
same,BOR NE,100mg (N=3),0 n (%)
same,BOR PD,100mg (N=3),0 n (%)
same,BOR PR,100mg (N=3),2 (66.7) n (%)
same,BOR SD,100mg (N=3),1 (33.3) n (%)
same,Confirmed ORR (95% CI),100mg (N=3),"2 (66.7) (9.4, 99.2) n (%)"
same,DCR (95% CI),100mg (N=3),"3 (100) (29.2, 100.0) n (%)"
same,Median DOR (95% CI),100mg (N=3),"5.57 (4.17, -) months"
same,Median TTR (range),100mg (N=3),"2.05 (1.35, 2.76) months"
same,BOR CR,125mg (N=3),0 n (%)
same,BOR NE,125mg (N=3),0 n (%)
same,BOR PD,125mg (N=3),1 (33.3) n (%)
same,BOR PR,125mg (N=3),1 (33.3) n (%)
same,BOR SD,125mg (N=3),1 (33.3) n (%)
same,Confirmed ORR (95% CI),125mg (N=3),"1 (33.3) (0.8, 90.6) n (%)"
same,DCR (95% CI),125mg (N=3),"2 (66.7) (9.4, 99.2) n (%)"
same,Median DOR (95% CI),125mg (N=3),"9.53 (-, -) months"
same,Median TTR (range),125mg (N=3),"1.38 (1.38, 1.38) months"
